In PMC5217372, “Activation of SsoPK4, an Archaeal eIF2α Kinase Homolog, by Oxidized CoA” (Proteomes, 2015):
Several values for one entry are separate records, joined by “and”; a condition that tells them apart may be missing. Identical values can stand only once.

Assays:
[1] = target: T1, rSsoPK4(284–635) (Saccharolobus solfataricus, UniProt Q97U41); assay: Filter paper [γ-32P]ATP kinase assay with MBP as phosphoacceptor, ATP routinely 100 µM, 5 mM MgCl2 and 5 mM MnCl2, 50 mM MOPS pH 7.0, 65 °C, in the presence of nucleotide effectors.; type: biochemical
T1 construct: gene SSO3182; residues 284–635 (catalytic and part of central helical repeat domain), N-terminal S-tag, C-terminal 33-residue fusion domain with polyhistidine motif, pET-29b, expressed in E. coli
T1 sequence (Q97U41 284-635): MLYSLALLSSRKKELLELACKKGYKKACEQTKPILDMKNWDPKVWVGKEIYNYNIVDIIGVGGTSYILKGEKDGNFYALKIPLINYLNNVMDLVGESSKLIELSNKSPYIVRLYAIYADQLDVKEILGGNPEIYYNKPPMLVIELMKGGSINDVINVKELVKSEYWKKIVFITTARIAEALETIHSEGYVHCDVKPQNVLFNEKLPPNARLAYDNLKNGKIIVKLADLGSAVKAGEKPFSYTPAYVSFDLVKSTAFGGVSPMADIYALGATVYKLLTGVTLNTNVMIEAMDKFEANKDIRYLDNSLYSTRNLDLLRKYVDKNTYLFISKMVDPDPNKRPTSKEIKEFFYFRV
Procedure: (§1) Protein kinase activity was routinely assayed by the filter paper method of Corbin and Reimann as modified by Lower and Kennelly. The final volume of the assays was typically 50 μL. The quantity of rSsoPK4 assayed ranged from 0.1 to 5.0 µg. Both MgCl2 and MnCl2 were included at a final concentration of 5 mM each. The final concentration of [γ-^32P]ATP was 100 μM. The specific activity of the [γ-^32P]ATP generally ranged from 2 to 5 × 10^15 cpm/mol. Phosphoacceptor proteins were generally present at a concentration of 0.5–1.0 µg/µL. The assay mixture was typically incubated for a period of 30 min to one hour at 65 °C in 50 mM MOPS pH 7.0. On occasion, the proteins within the assay mixture were resolved by SDS-PAGE in order to identify the specific polypeptides that were phosphorylated. Radiolabeled species were visualized using an Instant Imager from Packard (Downers Grove, IL, USA).

[2] = test system: rSsoPK4(284–635) T592D/T606D/S611D; assay: Protein kinase activity assay of rSsoPK4(284–635) T592D/T606D/S611D; type: biochemical, Sulfolobus solfataricus; details: for Km / Vmax toward protein substrate: no CoAS-SCoA, label = protein substrate
Procedure: Figure 9 CoAS-SCoA activates rSsoPK4(284–635), but not rSsoPK4(284–635) T592D/T606D/S611D, in a concentration-dependent manner. The activity of rSsoPK4(284–635) (OPEN […]) and rSsoPK4(284–635) T592D/T606D/S611D (OPEN CIRCLES) were assayed, in duplicate, in the presence of the indicated concentrations of CoAS-SCoA using MBP as substrate. Shown is a plot of the activity relative to that measured in the absence of CoAS-SCoA, which was normalized as 1.0, plus or minus mean average deviation.

[3] = test system: rSsoPK4(284–635); assay: Protein kinase activity assay (filter paper method, [γ-32P]ATP, 65 °C) of rSsoPK4(284–635); type: biochemical, Sulfolobus solfataricus; details: for Vmax in the presence of CoAS-SCoA: CoAS-SCoA 1 mM; for Km / Vmax toward protein substrate: no CoAS-SCoA, label = protein substrate, estimated
Procedure: as §1

[4] = test system: rSsoPK4(284–635)T606D/S611D; assay: Protein kinase activity assay of rSsoPK4(284–635)T606D/S611D; type: biochemical, Sulfolobus solfataricus
[5] = substrate: Nc1ncnc2c1ncn2[C@@H]1O[C@H](COP(=O)(O)OP(=O)(O)OP(=O)(O)O)[C@@H](O)[C@H]1O; assay: Filter paper [32P]phosphate incorporation kinase assay with varied [γ-32P]ATP and mixed histones fixed at 70 µM as phosphoacceptor, 5 mM MgCl2 and 5 mM MnCl2, 50 mM MOPS pH 7.0, 65 °C; Lineweaver-Burk plot.; type: biochemical
Procedure: Protein kinase activity was routinely assayed by the filter paper method of Corbin and Reimann [18] as modified by Lower and Kennelly [19]. The final volume of the assays was typically 50 μL. The quantity of rSsoPK4 assayed ranged from 0.1 to 5.0 µg. Both MgCl2 and MnCl2 were included at a final concentration of 5 mM each. The final concentration of [γ-^32P]ATP was 100 μM. The specific activity of the [γ-^32P]ATP generally ranged from 2 to 5 × 10^15 cpm/mol. Phosphoacceptor proteins were generally present at a concentration of 0.5–1.0 µg/µL. The assay mixture was typically incubated for a period of 30 min to one hour at 65 °C in 50 mM MOPS pH 7.0. On occasion, the proteins within the assay mixture were resolved by SDS-PAGE in order to identify the specific polypeptides that were phosphorylated. Radiolabeled species were visualized using an Instant Imager from Packard (Downers Grove, IL, USA).

Molecule: Nc1ncnc2c1ncn2[C@@H]1O[C@H](COP(=O)(O)OP(=O)(O)O)[C@@H](O)[C@H]1O [ADP, adenosine 5'-diphosphate]
- IC50 [1]: 190 µM

Molecule: Nc1ncnc2c1ncn2[C@@H]1O[C@H](COP(=O)(O)O)[C@@H](O)[C@H]1O [5'AMP, adenosine 5'-monophosphate]
- IC50 [1]: 920 µM

Molecule: CC(C)(COP(=O)(O)OP(=O)(O)OC[C@H]1O[C@@H](n2cnc3c(N)ncnc32)C(O)[C@H]1OP(=O)(O)O)[C@@H](O)C(=O)NCCC(=O)NCCSSCCNC(=O)CCNC(=O)[C@H](O)C(C)(C)COP(=O)(O)OP(=O)(O)OC[C@H]1O[C@@H](n2cnc3c(N)ncnc32)C(O)[C@H]1OP(=O)(O)O (stereo partly shown) [CoAS-SCoA, oxidized Coenzyme A]
- sensitivity of activity to oxidized CoA ([2]; MBP as substrate (Figure 9)): no longer sensitive
- Vmax in the presence of CoAS-SCoA ([3]; protein substrate MBP (3.7 without)): 4.8 nmol/min/mg
- Vmax in the presence of CoAS-SCoA ([3]; protein substrate aIF2α (4.2 without)): 2.9 nmol/min/mg
- effect on protein kinase activity toward MBP ([3]; MBP substrate, compounds at 1 mM (Figure 8)): stimulate protein kinase activity toward MBP several-fold
- shift (lowering) of Km for aIF2α by oxidized CoA ([3]; from ~48 µM in absence to ~6 µM in presence of oxidized CoA): ~ 8 fold
- sensitivity of activity to oxidized CoA [4]: no longer sensitive

Molecule: Nc1ncnc2c1ncn2[C@@H]1O[C@H](CO)[C@H]2OP(=O)(O)O[C@H]21 [2ʹ,3ʹ-cAMP, 2ʹ,3ʹ-cyclic AMP]
- IC50 [1]: 1550 µM

Molecule: Nc1ncnc2c1ncn2[C@@H]1O[C@H](CO)[C@@H](OP(=O)(O)O)[C@H]1O [3ʹ-AMP, adenosine 3'-monophosphate]
- IC50 [1]: 2100 µM

B1: rSsoPK4(284–635) (Saccharolobus solfataricus P2) (protein)
chain: T1 sequence (Q97U41 284-635)
notes: residues 284–635 (catalytic and part of central helical repeat domain), N-terminal S-tag, C-terminal 33-residue fusion domain with polyhistidine motif, pET-29b, expressed in E. coli
- Km [5]: 100 µM

B2: aIF2α: recombinant protein product of ORF sso1050, archaeal homologue of eIF2α from S. solfataricus (protein, UniProt Q97Z79 1-266, looked up)
Translation initiation factor …: MIYSRSKLPSEGEILIATVKQVFDYGSYVSLDEYGGLQAFLPWSEVSSKWVKNIRDVLKENRKVIVKVIRVDRRKGTVDVSLKKVTDDERRKKNLQWKKIQRLDKILELVSQKLKLSEKDAWEQVAWKLEAKYGDPITAIEKAVKEGEKILIDAGVPEIWVKPLLEEASKHAEERKVKMSGLITVRTNEPLGVEKIKEVISKALENIEQDYESLLNIKIYTIGAPRYRVDVVGTNPKEASEALNQIISNLIKIGKEENVDISVVKK
- Km [2]: 4 µM
- Vmax toward protein substrate [2]: 1.9 nmol/min/mg
- Km [3]: ~48 µM and 48 µM
- Vmax toward protein substrate [3]: 4.2 nmol/min/mg

B3: MBP: myelin basic protein, exogenous phosphoacceptor substrate (protein, UniProt P02687 1-169, looked up)
Myelin basic protein: AAQKRPSQRSKYLASASTMDHARHGFLPRHRDTGILDSLGRFFGSDRGAPKRGSGKDGHHAARTTHYGSLPQKAQGHRPQDENPVVHFFKNIVTPRTPPPSQGKGRGLSLSRFSWGAEGQKPGFGYGGRASDYKSAHKGLKGHDAQGTLSKIFKLGGRDSRSGSPMARR
- Km [2]: 17 µM
- Vmax toward protein substrate [2]: 4.2 nmol/min/mg
- Km [3]: 145 µM
- Vmax toward protein substrate [3]: 3.7 nmol/min/mg
